This experiment addresses human DGKζ (Homo sapiens (Human), UniProt Q13574). Put plainly: Human DGKζ kinase activity inhibition assay (ADP-Glo). Format: biochemical. Particulars: in vitro human DGKζ kinase activity inhibition assay; read-out: IC50. A digest of the protocol:
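Enzyme was C-terminally FLAG-tagged full-length recombinant human DGKζ from baculovirus-infected insect cells. Substrate preparation used octyl-β-D-glucopyranoside in 50 mM MOPS pH 7.4 with sonication; ADP generated was quantified by ADP-Glo luminescence as activity measure.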
A general note: ADP-Glo first removes unused ATP, then detects ADP through luciferase.
Chain of human DGKζ (Q13574 other isoform, or with tags, fused parts or gaps): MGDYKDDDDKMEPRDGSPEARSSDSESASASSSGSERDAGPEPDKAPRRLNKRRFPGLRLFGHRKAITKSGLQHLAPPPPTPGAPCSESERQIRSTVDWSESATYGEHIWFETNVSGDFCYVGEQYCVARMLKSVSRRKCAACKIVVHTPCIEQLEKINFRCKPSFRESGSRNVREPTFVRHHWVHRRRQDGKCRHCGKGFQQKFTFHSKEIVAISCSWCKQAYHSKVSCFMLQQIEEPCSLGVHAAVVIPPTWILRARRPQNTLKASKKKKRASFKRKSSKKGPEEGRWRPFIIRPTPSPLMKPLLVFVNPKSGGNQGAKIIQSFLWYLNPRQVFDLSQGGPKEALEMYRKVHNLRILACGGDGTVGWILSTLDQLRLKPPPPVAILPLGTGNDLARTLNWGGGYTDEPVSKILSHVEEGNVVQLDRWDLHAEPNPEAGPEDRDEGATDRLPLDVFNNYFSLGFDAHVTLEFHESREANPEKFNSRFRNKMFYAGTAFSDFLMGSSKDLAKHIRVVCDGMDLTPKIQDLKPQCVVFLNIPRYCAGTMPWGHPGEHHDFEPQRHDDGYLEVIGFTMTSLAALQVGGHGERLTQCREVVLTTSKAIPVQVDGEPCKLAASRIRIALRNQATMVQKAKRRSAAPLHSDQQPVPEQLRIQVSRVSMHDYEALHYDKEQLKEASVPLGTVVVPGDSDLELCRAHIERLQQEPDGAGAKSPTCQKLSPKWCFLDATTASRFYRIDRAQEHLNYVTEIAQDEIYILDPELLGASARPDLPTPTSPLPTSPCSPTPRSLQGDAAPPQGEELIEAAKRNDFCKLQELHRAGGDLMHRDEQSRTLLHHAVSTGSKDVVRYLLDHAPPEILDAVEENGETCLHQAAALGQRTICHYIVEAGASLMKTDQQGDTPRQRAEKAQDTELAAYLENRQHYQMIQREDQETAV
With `CC(C(N)=O)N(c1ccc(F)cc1)c1nc(N)c(C(=O)c2ccnc(Cl)c2)s1` (racemic) [Example 186, rac-2-(N-[4-amino-5-(2-chloropyridine-4-carbonyl)thiazol-2-yl]-4-fluoro-anilino)propanamide], the IC50 amounted to 0.392 µM.
Next, `CC(C(N)=O)N(c1ccc(F)cc1)c1nc(N)c(C(=O)c2ccc(C(F)(F)F)nc2)s1` (single isomer, unassigned) [Example 29.2, 2-(N-[4-amino-5-[6-(trifluoromethyl)pyridine-3-carbonyl]thiazol-2-yl]-4-fluoro-anilino)propanamide]: 0.0462 µM; `CC(C(N)=O)N(c1ccc(F)cc1)c1nc(N)c(C(=O)c2ccc(OCCO)cc2)s1` (racemic) [Example 292, rac-2-(N-[4-amino-5-[4-(2-hydroxyethoxy)benzoyl]thiazol-2-yl]-4-fluoro-anilino)propanamide]: 0.282 µM; `CC(C(N)=O)N(c1ccc(OC(F)(F)F)c(Cl)c1)c1nc(N)c(C(=O)c2ccncc2)s1` (racemic) [Example 225, rac-2-[N-[4-amino-5-(pyridine-4-carbonyl)thiazol-2-yl]-3-chloro-4-(trifluoromethoxy)anilino]propanamide]: 0.252 µM.
As for `CC(C)NC(=O)C(C)(C)Oc1ccc(C(=O)c2sc(N(c3ccc(F)cc3)C(C)C(N)=O)nc2N)cc1` (racemic) [Example 154, rac-2-[4-[4-amino-2-(N-(2-amino-1-methyl-2-oxo-ethyl)-4-fluoro-anilino)thiazole-5-carbonyl]phenoxy]-N-isopropyl-2-methyl-propanamide], the figure is 0.0556 µM; as for `COCCNC(=O)COc1ccc(C(=O)c2sc(N(c3ccc(F)cc3)C(C)C(N)=O)nc2N)cc1` (racemic) [Example 91, rac-2-(N-(4-amino-5-[4-[2-(2-methoxyethylamino)-2-oxo-ethoxy]benzoyl]thiazol-2-yl]-4-fluoro-anilino)propanamide], 0.701 µM.
For `COc1ccc(N(c2nc(N)c(C(=O)c3ccc(OC(F)F)cc3)s2)C(C)C(N)=O)cc1` (single isomer, unassigned) [Example 174.1, 2-(N-[4-amino-5-[4-(difluoromethoxy)benzoyl]thiazol-2-yl]-4-methoxy-anilino)propanamide], the IC50 came to 0.026 µM.
Next, `CC(C(N)=O)N(c1ccc(F)cc1)c1nc(N)c(C(=O)c2ccc(C#N)cc2)s1` (racemic) [Example 33, rac-2-(N-[4-amino-5-(4-cyanobenzoyl)thiazol-2-yl]-4-fluoro-anilino)propanamide]: 0.0428 µM; `CC(C(N)=O)N(c1ccc(C(F)F)cc1)c1nc(N)c(C(=O)c2ccc(Cl)cc2)s1` (racemic) [Example 244, rac-2-[N-[4-amino-5-(4-chlorobenzoyl)thiazol-2-yl]-4-(difiuoromethyl)anilino]propanamide]: 0.03 µM.
Next, `Cc1ccc(CNC(=O)COc2ccc(C(=O)c3sc(N(c4ccc(F)cc4)C(C)C(N)=O)nc3N)cc2)cc1` (racemic) [Example 126, rac-2-(N-[4-amino-5-[4-[2-oxo-2-(p-tolylmethylamino)ethoxy]benzoyl]thiazol-2-yl]-4-fluoro-anilino)propanamide]: 0.0288 µM; `CCC(C(N)=O)N(c1ccc(F)cc1)c1nc(N)c(C(=O)c2ccccc2)s1` (racemic) [Example 68, rac-2-[(4-amino-5-benzoyl-1,3-thiazol-2-yl)(4-fluorophenyl)amino]butanamide]: 0.457 µM; `CC(C(N)=O)N(c1ccc(F)c(F)c1)c1nc(N)c(C(=O)c2ccc(O)cc2)s1` (single isomer, unassigned; enantiomer 1) [Example 287, 2-(N-[4-amino-5-(4-hydroxybenzoyl)thiazol-2-yl]-3,4-difluoro-anilino)propanamide (enantiomer 1)]: 0.018 µM.
As to `CC(C(N)=O)N(c1ccc(Br)cc1)c1nc(N)c(C(=O)c2ccccc2)s1` (racemic) [Example 193, rac-2-(N-(4-amino-5-benzoyl-thiazol-2-yl)-4-bromo-anilino)propanamide], the half-maximal inhibitory concentration (IC50) was 0.035 µM.

For orientation: IC50 means the concentration at which inhibition is half-maximal.

The values above are taken from patent US11964953B2, “Substituted aminothiazoles as DGKzeta inhibitors for immune activation” (Bayer Aktiengesellschaft, priority 2020, dated 2024).
